Active and inactive are the calls of the source.
Tests used:
[1] = Late-stage results from the probe development effort to identify antagonists of arginine vasopressin receptor 1a (AVPR1a): fluorescence-based cell-based dose response AVPR1a inhibition assay.; type: functional
Vasopressin V1b receptor = Vasopressin V1b receptor (Homo sapiens, UniProt P47901); experiment: Late-stage results from the probe development effort to identify antagonists of arginine vasopressin receptor 1a (AVPR1a): fluorescence-based cell-based dose response AVPR1b inhibition counterscreen assay.; type: functional
Vasopressin V2 receptor = Vasopressin V2 receptor (Homo sapiens, UniProt P30518); experiment: Late-stage results from the probe development effort to identify antagonists of arginine vasopressin receptor 1a (AVPR1a): fluorescence-based cell-based dose response AVPR2 inhibition counterscreen assay.; type: functional
[2] = Late-stage results from the probe development effort to identify antagonists of arginine vasopressin receptor 1a (AVPR1a): fluorescence-based cell-based dose response OXTR inhibition counterscreen assay.; type: functional
[3] = cytotoxicity in HEK-293T cells, dose response, cytotoxicity control for BCR NF-kB inhibitor project, luminescence, B-cell screen hits (AID 489021); type: functional, cell-based;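 further: HEK-293T cells carrying an NF-kB luciferase reporter; cells exposed to compound for about 14 hours before viability readout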
[4] = cytotoxicity in HPDE-C7 cells, cell-based, fluorescence, HTS (AID 430); type: functional; details: Homo sapiens
[5] = Vero cell cytotoxicity, dose response, cytotoxicity control for Vif-APOBEC3G degradation inhibitor project, Vero cells (AID 1117358); type: functional; details: Human immunodeficiency virus 1, Vero
[6] = cytotoxicity in KRAS-transformed pancreatic duct cells, primary screen, cell-based, fluorescence, HTS (AID 431); type: functional; details: Homo sapiens;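 further: cell line used: HPDE-C7K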
[7] = growth suppression of PTEN-null colon cells, dose response, cell-based, HCT116 PTEN knockout (AID 1047); type: functional;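 further: HCT116 colon tumor cells with PTEN knocked out; cells exposed to compound for 60 hours before readout; potency for loss of cell viability measured by luminescence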
[8] = target: T1, Hepatocyte nuclear factor 4-alpha (Homo sapiens, UniProt P41235); type: functional, cell-based;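 further: biochemical luminescence-based dose-response counterscreen measuring inhibition of HNF4 dimerization, run alongside a screen for blockers of ABHD5–perilipin-5 interaction; split luciferase complementation of HNF4 fusion proteins in cell lysate measuring dimerization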
T1 sequence (P41235 whole entry): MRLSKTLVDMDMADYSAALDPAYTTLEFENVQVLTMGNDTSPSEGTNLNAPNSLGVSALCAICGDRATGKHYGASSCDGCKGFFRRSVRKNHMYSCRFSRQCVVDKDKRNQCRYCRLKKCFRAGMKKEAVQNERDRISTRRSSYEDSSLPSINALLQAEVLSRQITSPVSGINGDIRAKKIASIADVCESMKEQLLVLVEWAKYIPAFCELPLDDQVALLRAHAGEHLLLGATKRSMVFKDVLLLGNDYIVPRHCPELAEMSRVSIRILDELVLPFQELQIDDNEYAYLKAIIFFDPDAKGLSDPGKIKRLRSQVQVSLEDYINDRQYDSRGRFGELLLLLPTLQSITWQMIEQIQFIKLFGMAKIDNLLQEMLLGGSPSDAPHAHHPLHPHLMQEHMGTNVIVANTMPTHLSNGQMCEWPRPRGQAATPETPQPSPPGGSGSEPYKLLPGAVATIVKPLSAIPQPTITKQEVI

[9] = growth suppression of beta-catenin-knockout colon cells, dose response, cell-based, HCT116, human colon tumor (AID 1045); type: functional;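 further: HCT116 colon tumor cells with beta catenin knocked out; cells exposed to compound for 60 hours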
Tumor necrosis factor = Tumor necrosis factor (Homo sapiens, UniProt P01375); experiment: TNFa-triggered NF-kB activation inhibitors, SAR follow-up, cell-based, revised (AID 2337); type: functional
HEK293 [10] = experiment: NOD2 signaling inhibitors in MDP-stimulated cells, cell-based, uHTS, luminescence (AID 2001); type: functional; details: Homo sapiens
HEK293 [11] = experiment: NOD1 signaling inhibitors, primary screen, cell-based, luminescence, uHTS (AID 1578); type: functional; details: Homo sapiens
HEK293 [12] = experiment: cells; type: functional, cell-based; details: Homo sapiens
ELAV-like protein 1 = ELAV-like protein 1 (Homo sapiens, UniProt Q15717); experiment: Identify HuR specific inhibitors.; type: functional
[13] = target: T2, Nucleotide-binding oligomerization domain-containing protein 1 (Homo sapiens, UniProt Q9Y239); experiment: NOD1 signaling inhibitors, SAR follow-up, revised (AID 2333); type: functional
T2 sequence (Q9Y239 whole entry): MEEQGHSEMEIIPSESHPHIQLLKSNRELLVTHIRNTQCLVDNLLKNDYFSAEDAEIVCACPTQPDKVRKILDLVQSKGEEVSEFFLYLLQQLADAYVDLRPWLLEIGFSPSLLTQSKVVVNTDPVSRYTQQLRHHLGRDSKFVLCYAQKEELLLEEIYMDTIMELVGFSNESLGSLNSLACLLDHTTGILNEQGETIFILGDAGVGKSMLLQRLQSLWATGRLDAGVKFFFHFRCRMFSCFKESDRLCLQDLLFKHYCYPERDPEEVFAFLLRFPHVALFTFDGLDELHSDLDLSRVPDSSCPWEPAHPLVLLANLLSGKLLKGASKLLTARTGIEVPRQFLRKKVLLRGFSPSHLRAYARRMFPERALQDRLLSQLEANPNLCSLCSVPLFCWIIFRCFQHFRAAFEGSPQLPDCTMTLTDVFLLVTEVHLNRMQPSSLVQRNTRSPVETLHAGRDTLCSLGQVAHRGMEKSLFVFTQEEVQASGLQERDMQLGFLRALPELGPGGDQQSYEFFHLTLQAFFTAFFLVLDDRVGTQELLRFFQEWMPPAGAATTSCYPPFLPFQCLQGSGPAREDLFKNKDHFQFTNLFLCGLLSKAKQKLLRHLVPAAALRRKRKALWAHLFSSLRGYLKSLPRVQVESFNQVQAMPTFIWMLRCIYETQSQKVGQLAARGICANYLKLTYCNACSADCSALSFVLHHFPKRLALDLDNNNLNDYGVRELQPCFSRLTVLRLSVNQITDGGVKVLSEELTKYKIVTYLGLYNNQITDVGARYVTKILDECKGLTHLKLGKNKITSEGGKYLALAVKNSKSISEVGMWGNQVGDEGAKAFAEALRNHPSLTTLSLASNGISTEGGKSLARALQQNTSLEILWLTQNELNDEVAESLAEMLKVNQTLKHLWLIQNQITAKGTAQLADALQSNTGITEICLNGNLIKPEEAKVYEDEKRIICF

HEK293 [14] = experiment: cells; type: functional, cell-based; details: Homo sapiens; remark: listed apart in the source
HEK293 [15] = experiment: cells; details: Homo sapiens
[16] = Orthopox viral replication plaque formation Measured in Cell-Based and Microorganism Combination System Using Imaging - 2142-05_Inhibitor_Dose_DryPowder_Activity.; type: functional
[17] = inhibitors of PGC1a acetylation in cells, dose response, cell-based, cherry-picked samples (AID 720514); type: functional;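 further: potency may reflect raised or lowered acetylation signal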
[18] = target: G-protein coupled receptor 183 (Homo sapiens, UniProt P32249); experiment: SAR confirmation of small molecule antagonists of the EBI2 receptor via a luminescent beta-arrestin assa.; type: functional
[19] = target: E3 ubiquitin-protein ligase Mdm2 (Homo sapiens, UniProt Q00987); experiment: enhancers of MDM2-luciferase reporter signal, concentration-effect titration, project on inhibitors of MDM2 ubiquitin ligase, cellular assay, luminescent readout, 384-well plate format (AID 1394); type: functional;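 further: MDM2 E3 inhibitors raise luminescence so EC50 is for signal enhancement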
Sequence of E3 ubiquitin-protein ligase Mdm2 (Q00987 whole entry): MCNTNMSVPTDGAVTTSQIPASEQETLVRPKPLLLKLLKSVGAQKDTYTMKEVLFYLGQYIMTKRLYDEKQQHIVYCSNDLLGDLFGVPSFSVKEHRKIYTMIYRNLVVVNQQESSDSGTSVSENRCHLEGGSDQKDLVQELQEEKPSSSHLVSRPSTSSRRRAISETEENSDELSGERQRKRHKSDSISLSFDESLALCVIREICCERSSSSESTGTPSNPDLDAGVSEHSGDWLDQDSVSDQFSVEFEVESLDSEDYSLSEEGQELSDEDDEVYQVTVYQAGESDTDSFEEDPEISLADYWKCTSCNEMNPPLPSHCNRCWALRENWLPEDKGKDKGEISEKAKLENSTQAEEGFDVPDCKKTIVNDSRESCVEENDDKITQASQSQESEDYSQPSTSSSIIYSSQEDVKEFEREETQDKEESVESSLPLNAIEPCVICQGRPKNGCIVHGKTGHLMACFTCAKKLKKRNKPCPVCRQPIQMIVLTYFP

Sequence of ELAV-like protein 1 (Q15717 whole entry, the tested form may be a part): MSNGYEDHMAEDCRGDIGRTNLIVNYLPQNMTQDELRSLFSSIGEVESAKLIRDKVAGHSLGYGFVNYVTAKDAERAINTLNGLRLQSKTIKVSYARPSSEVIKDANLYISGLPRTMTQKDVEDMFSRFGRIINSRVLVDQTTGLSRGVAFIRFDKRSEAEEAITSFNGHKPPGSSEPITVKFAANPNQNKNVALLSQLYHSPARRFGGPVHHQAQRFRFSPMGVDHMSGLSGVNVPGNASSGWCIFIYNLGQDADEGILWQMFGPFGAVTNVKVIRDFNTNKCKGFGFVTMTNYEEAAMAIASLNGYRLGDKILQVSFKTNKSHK
Sequence of G-protein coupled receptor 183 (P32249 whole entry): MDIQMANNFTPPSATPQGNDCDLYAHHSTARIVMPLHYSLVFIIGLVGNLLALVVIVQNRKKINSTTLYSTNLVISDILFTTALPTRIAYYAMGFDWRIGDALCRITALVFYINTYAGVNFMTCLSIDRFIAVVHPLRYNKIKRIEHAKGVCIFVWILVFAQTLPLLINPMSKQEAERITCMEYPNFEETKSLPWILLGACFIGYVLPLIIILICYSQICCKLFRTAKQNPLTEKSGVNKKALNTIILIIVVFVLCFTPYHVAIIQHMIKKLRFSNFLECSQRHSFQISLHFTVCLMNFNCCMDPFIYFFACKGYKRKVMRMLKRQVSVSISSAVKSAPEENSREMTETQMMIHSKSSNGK
Sequence of Vasopressin V1b receptor (P47901 whole entry): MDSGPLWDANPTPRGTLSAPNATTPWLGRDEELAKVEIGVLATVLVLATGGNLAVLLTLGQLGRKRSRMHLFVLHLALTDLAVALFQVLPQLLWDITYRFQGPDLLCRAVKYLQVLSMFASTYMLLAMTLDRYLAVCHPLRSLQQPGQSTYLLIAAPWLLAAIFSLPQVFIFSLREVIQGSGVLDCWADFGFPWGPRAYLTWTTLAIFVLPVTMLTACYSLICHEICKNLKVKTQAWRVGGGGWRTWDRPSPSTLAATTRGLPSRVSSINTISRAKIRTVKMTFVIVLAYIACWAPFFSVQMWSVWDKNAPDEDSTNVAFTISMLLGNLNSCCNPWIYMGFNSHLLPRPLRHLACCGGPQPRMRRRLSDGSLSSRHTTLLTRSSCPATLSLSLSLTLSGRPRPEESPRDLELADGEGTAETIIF
Sequence of Tumor necrosis factor (P01375 whole entry): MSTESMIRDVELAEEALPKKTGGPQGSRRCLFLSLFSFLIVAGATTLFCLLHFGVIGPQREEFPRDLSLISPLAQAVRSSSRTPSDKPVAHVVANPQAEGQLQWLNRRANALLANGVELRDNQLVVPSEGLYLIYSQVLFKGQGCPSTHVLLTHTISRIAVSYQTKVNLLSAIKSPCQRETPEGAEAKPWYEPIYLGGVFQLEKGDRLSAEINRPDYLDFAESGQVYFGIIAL
Sequence of Vasopressin V2 receptor (P30518 whole entry): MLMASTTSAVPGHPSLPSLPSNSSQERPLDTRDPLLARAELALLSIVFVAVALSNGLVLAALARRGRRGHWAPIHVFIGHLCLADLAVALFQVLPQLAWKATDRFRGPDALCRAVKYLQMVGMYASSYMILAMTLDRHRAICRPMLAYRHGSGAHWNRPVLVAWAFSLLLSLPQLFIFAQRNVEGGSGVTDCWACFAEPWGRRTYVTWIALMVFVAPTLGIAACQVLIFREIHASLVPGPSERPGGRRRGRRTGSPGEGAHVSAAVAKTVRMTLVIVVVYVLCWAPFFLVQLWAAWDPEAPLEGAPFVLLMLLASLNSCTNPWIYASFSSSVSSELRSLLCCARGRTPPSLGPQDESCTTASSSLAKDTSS

Structure (SMILES): COc1ccc(N(CC2CC2)C(=O)N2CCN(c3ccccc3C)CC2)cc1
- IC50 [1]: 0.0038 µM (active)
- IC50 (Vasopressin V1b receptor): 5.8 µM (active)
- IC50 (Vasopressin V2 receptor): 3.51 µM (active)
- IC50 [2]: 0.051 µM (active)

Structure (SMILES): CC1=CC(C)(C)Nc2ccc(OC(=O)c3cccnc3)cc21
- IC50 [3]: 62.5 µM (inactive)
- EC50 [4]: 8.6 µM (active)
- CC50 [5]: 34.4 µM (active)
- EC50 [6]: 8.23 µM (active)
- EC50 [7]: 7.33 µM (active)
- IC50 [8]: 3.22 µM (active)
- EC50 [9]: 5.85 µM (active)

Structure (SMILES): O=C(Nc1cccc([N+](=O)[O-])c1)c1ccc2ccccc2c1O
- IC50 (Tumor necrosis factor): 4.72 µM (active)
- IC50 (HEK293 [10]): 6.08 µM (inactive)
- EC50 (HEK293 [11]): 3.05 µM (active)
- IC50 (HEK293 [12]): 6.83 µM (active)
- IC50 (ELAV-like protein 1): 97.4 µM (inactive)
- IC50 [13]: 4.36 µM (active)
- IC50 (HEK293 [14]): > 20 µM (inactive)
- IC50 (HEK293 [15]): 13.2 µM (active)

Structure (SMILES): C[C@@H](O)C#Cc1ccc2c(c1)O[C@@H](CN(C)S(=O)(=O)c1ccc(-c3ccccc3)cc1)[C@@H](C)CN([C@@H](C)CO)S2(=O)=O
- AC50 [16]: 12.3 µM (active)

Structure (SMILES): N#Cc1c(N)c(C(=O)c2ccccc2)n2ccccc12
- AC50 [17]: 25.7 µM (active)

Structure (SMILES): O=C(/C=C/c1ccc(Br)cc1)N1CCN(C(=O)C2CCCC2)CC1
- IC50 [18]: 0.00441 µM (active)

Structure (SMILES): CCOc1ccc(NC(=O)CN(C)S(=O)(=O)c2c[nH]cn2)cc1
- EC50 [19]: 25 µM (not active)

Reference: ChEMBL document CHEMBL1201862, “PubChem BioAssay data set” (2004)
